Measurements reported in patent US20130065792A1, “INDUCIBLE EXPRESSION OF SGLT5, METHODS AND KITS USING THE SAME” (BOEHRINGER INGELHEIM INTERNATIONAL GMBH, priority 2011, published 2013).

Columns and labels:
Assay type in all cases: cell-based
[1] = target: T1, SGLT5 (Homo sapiens, UniProt A0PJK1); experiment: Time dependent specific uptake of [14C]-monosaccharides by T-Rex 293-hSGLT5 cells (FIG. 3); details: 1 mM monosaccharide, 5-60 min, tetracycline induced T-Rex 293-hSGLT5 cells
T1 construct: expressed in transfected cells; host or cells: T-Rex 293 cells (Invitrogen), stably transfected with pT-Rex-Dest30-hSGLT5; expression induced with tetracycline; deposited clone DSM ACC3096
T1 sequence (A0PJK1 1-596): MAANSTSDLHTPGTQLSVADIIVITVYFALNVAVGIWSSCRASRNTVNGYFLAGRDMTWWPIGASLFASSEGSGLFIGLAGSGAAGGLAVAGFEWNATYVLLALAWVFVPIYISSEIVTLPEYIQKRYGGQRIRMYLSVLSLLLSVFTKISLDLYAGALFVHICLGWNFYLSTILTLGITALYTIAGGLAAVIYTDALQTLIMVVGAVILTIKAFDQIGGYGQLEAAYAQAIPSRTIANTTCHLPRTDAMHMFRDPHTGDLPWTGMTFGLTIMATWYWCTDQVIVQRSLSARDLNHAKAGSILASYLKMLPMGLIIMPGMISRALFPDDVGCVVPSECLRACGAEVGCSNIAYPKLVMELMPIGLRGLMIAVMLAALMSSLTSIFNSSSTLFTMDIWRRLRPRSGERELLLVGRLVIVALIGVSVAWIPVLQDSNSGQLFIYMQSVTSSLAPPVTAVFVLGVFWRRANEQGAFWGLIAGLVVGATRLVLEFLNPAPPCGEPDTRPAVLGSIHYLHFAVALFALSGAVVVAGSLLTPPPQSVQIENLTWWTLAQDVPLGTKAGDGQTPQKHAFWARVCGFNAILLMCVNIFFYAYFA
Description: [^14C]-saccharide uptake experiments: 30000 cells per well were seeded in white poly-D-lysine-coated 96-well plates and incubated over night. The expression of hSGLT5 was induced 24 h before the start of uptake experiments by the addition of 1 μg/ml tetracycline to the cells. For the assay, cells were washed twice with 250 μl pre-treatment buffer [140 mM cholinchloride in basal buffer (10 mM HEPES; 5.4 mM KCl; 2.8 mM CaCl2*2 H2O; 1.2 mM MgSO4*7 H2O; 0.1% BSA, pH 7.4) and incubated in 200 μl pre-treatment buffer for 25 min at 37° C. Pre-treatment buffer was removed and 200 μl uptake buffer was added to the cells (140 mM NaCl in basal buffer containing 1 mM cold monosaccharide [either glucose, fructose, mannose, galactose or alphamethyl glucopyranoside (AMG), respectively]+0,6 μCi [^14C]-labelled monosaccharide [either glucose, fructose, mannose, galactose or alpha-methyl glucopyranoside (AMG), respectively] (Hartmann Analytics, Mannheim, Germany) and 10 μM Cytochalasin B. After incubation for 5, 10, 30 and 60 minutes at 37° C., the cells were washed three times with 300 μl PBS (Cambrex, Verviers, Belgium) and then lysed in 0.1 N NaOH with intermittent shaking for 5 min. The lysate was mixed with 200 μl MikroScint 40 Scintillator, shaken for 15 min and counted for radioactivity in the TopCount NXT (Canberra Packard, Schwadorf, Austria). Specific sugar uptake was determined by subtracting non-specific uptake of each sugar (in the presence of choline chloride) from total uptake of the same sugar (in the presence of sodium chloride).
Furthermore, a protocol was established to measure the specific uptake of monosaccharides e.g. mannose, fructose, glucose, AMG and galactose by hSGLT5, It could be shown that the transporter takes up mannose and fructose with high affinity and hardly transports glucose, AMG and galactose (FIG. 3). […] Specific uptake was calculated by subtracting the respective monosaccharide uptake in the presence of choline chloride from the total uptake of the same monosaccharide in the presence of sodium chloride.

[2] = target: T1, SGLT5; experiment: FLIPR membrane potential assay in HEK/293 cells constitutively expressing SGLT5 (Reference Example); details: constitutive expression; results later called unreliable and irreproducible
Description: FLIPR assay: Changes in membrane potential can be assayed using the FLIPR TETRA Assay (Molecular Devices). In this method cells are loaded with a fluorescent dye, which emits light of a different wavelength dependent on the membrane potential. This can be recorded in suitable cell culturing plates and monitored over time in the presence/absence of a test substance.
10.000 to 30.000 cells were seeded in a 384 well plate (black, lysine coated with transparent bottom, Becton Dickinson) and were incubated over night at 37° C. and 5% CO2. The next day they were washed twice with 50 μl assay buffer (140 mM NaCl; 1.26 mM CaCl2; 0.49 mM MgCl2*6 H2O; 0.41 mM MgSO4*7 H2O; 5.33 mM KCl; 0.44 mM KH2PO4−pH =7.4). […]
After starting the measurement ten sample points were assayed at intervals of 3 seconds. Thereafter […] of the dissolved test substances (e.g. monosaccharide and/or KCl) were added and 30 measurements were recorded in 3-second intervals, thereafter 16 measurements were recorded in 15-second intervals. […]
Cells showing strong expression by PCR were subcloned and propagated. […] According to the fluorescence signal induced by KCl a number of 30,000 cells/well was determined to provide the highest fluorescence signal. […] Thereafter cells were exposed to glucose, galactose, fructose, AMG or mannose in different concentrations and changes in fluorescence were recorded as described in Example 1. […]

[3] = target: T1, SGLT5; experiment: Uptake of C14-labeled galactose in HEK/293 cells constitutively expressing SGLT5 (Reference Example); details: galactose 0.1 mM; constitutive expression; called unreliable
Description: [^14C]-saccharide uptake experiments: 30000 cells per well were seeded in white poly-D-lysine-coated 96-well plates and incubated over night. The expression of hSGLT5 was induced 24 h before the start of uptake experiments by the addition of 1 μg/ml tetracycline to the cells. For the assay, cells were washed twice with 250 μl pre-treatment buffer [140 mM cholinchloride in basal buffer (10 mM HEPES; 5.4 mM KCl; 2.8 mM CaCl2*2 H2O; 1.2 mM MgSO4*7 H2O; 0.1% BSA, pH 7.4) and incubated in 200 μl pre-treatment buffer for 25 min at 37° C. […] The lysate was mixed with 200 μl MikroScint 40 Scintillator, shaken for 15 min and counted for radioactivity in the TopCount NXT (Canberra Packard, Schwadorf, Austria). Specific sugar uptake was determined by subtracting non-specific uptake of each sugar (in the presence of choline chloride) from total uptake of the same sugar (in the presence of sodium chloride). […]

[4] = target: T1, SGLT5; experiment: Competitive assay to inhibit C14-labeled AMG uptake into transfected HEK cells (Reference Example); details: constitutive expression; called unreliable
Description: SGLT5 was cloned as described in Example 1. However, instead of using the inducible pT-Rex-Dest30 plasmid the sequence was inserted into the expression plasmid pcDNA3.1/V5-His for constitutive expression. Using lipofection HEK/293 cells (ATCC) were stably transfected. The expression plasmid contained resistance to geneticin as a selection marker. The cells were cultivated in DMEM with 10% FCS and […] geneticin for selecting transfected cells. Expression was tested by RT-PCR.
Furthermore, cells were tested for uptake of C^14-labeled galactose in an assay as described in Example 1. […] In addition, a competitive assay to inhibit C^14-labeled AMG uptake into the transfected HEK cells was performed.

O=C[C@H](O)[C@@H](O)[C@@H](O)[C@H](O)CO [galactose]
specific uptake / affinity for hSGLT5 (in words) [1]: very low affinity | signal for depolarisation (FLIPR, in words) [2]: strongest signal for depolarisation | uptake signal relative to the negative control (absolute cpm) [3]: approximately 3 fold | inhibitory effect on C14-labeled AMG uptake (in words) [4]: highest inhibitory effect
